From PubChem BioAssay AID248 (DTP/NCI, 2004)
Values joined by “and” are separate entries in the source; they are usually repeats but may differ in a detail not shown here. Equal values may be shown once. Inconclusive results and toxic doses are left out. Rule as the data show it: active = T/C of 150% or more; inactive = T/C below 125%.

System: L1210 leukemia ip in BDF1 mice, survival T/C
Assay: NCI In Vivo Anticancer Drug Screen. Data for tumor model L1210 Leukemia (intraperitoneal) in B6D2F1 (BDF1) mice
Settings: endpoint: mean survival time, higher = longer survival
Outline: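 Transplanted-tumor mice were given test agent; controls received vehicle only. Survival readings from the two groups were divided (treated over control).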

[1] = dose: 100.0 mg/kg/injection, schedule: Q01DX001 (ip), vehicle: saline
[2] = dose: 200.0 mg/kg/injection, schedule: Q01DX001 (ip), vehicle: saline
[3] = dose: 400.0 mg/kg/injection, schedule: Q01DX001 (ip), vehicle: saline
[4] = dose: 50.0 mg/kg/injection, schedule: Q01DX001 (ip), vehicle: saline
[5] = dose: 100.0 mg/kg/injection, schedule: Q01DX001 (ip), vehicle: Klucel (hydroxypropylcellulose) (HPC)
[6] = dose: 100.0 mg/kg/injection, schedule: Q01DX009 (ip), vehicle: Klucel (hydroxypropylcellulose) (HPC)
[7] = dose: 200.0 mg/kg/injection, schedule: Q01DX009 (ip), vehicle: Klucel (hydroxypropylcellulose) (HPC)
[8] = dose: 100.0 mg/kg/injection, schedule: Q04DX003 (ip), vehicle: Klucel (hydroxypropylcellulose) (HPC)

Measured: T/C

CCC(=O)c1ccc(NC(=O)Nc2ccc(C(=O)CC)cc2)cc1
inactive: dose: 20.0 mg/kg/injection, schedule: Q01DX009 (ip), vehicle: saline 96 % of control | dose: 40.0 mg/kg/injection, schedule: Q01DX009 (ip), vehicle: saline 93 % of control | dose: 80.0 mg/kg/injection, schedule: Q01DX009 (ip), vehicle: saline 102 % of control | dose: 160.0 mg/kg/injection, schedule: Q01DX009 (ip), vehicle: saline 95 % of control | dose: 320.0 mg/kg/injection, schedule: Q01DX009 (ip), vehicle: saline 92 % of control

O=C(Nc1ccc(Cl)cc1)Nc1ccc(Cl)cc1
inactive: dose: 100.0 mg/kg/injection, schedule: Q04DX003 (ip), vehicle: saline with Tween-80 91 % of control | dose: 200.0 mg/kg/injection, schedule: Q04DX003 (ip), vehicle: saline with Tween-80 91 % of control

ClC(Cl)(NC1CCCCC1)NC1CCCCC1
inactive: [1] 90 % of control | [2] 91 % of control | [3] 86 % of control

OCCNC(c1ccc(Cl)cc1)C(O)c1ccc(Cl)cc1 (stereo unspecified)
inactive: [4] 98 % of control | [1] 98 % of control | [2] 98 % of control

CC(=O)CC(=O)CF.CC(=O)CC(=O)CF.[Cu]
inactive: dose: 12.0 mg/kg/injection, schedule: Q01DX001 (ip), vehicle: saline 90 % of control | dose: 25.0 mg/kg/injection, schedule: Q01DX001 (ip), vehicle: saline 107 % of control

O=S(Sc1ccc(N(CCCl)CCCl)cc1)c1ccc(N(CCCl)CCCl)cc1 (stereo unspecified)
inactive: [5] 95 % of control | dose: 100.0 mg/kg/injection, schedule: Q01DX009 (ip), vehicle: gum acacia 86 % of control | dose: 200.0 mg/kg/injection, schedule: Q01DX001 (ip), vehicle: Klucel (hydroxypropylcellulose) (HPC) 108 % of control | dose: 200.0 mg/kg/injection, schedule: Q01DX009 (ip), vehicle: gum acacia 93 % of control | dose: 400.0 mg/kg/injection, schedule: Q01DX001 (ip), vehicle: Klucel (hydroxypropylcellulose) (HPC) 93 % of control | dose: 400.0 mg/kg/injection, schedule: Q01DX009 (ip), vehicle: gum acacia 122 % of control

CCCCN=Cc1ccc(Cl)cc1
inactive: dose: 100.0 mg/kg/injection, schedule: Q04DX002 (ip), vehicle: saline with Tween-80 90 % of control | dose: 200.0 mg/kg/injection, schedule: Q04DX002 (ip), vehicle: saline with Tween-80 87 % of control | dose: 400.0 mg/kg/injection, schedule: Q04DX002 (ip), vehicle: saline with Tween-80 100 % of control

C=Nc1ccc(Cl)cc1
inactive: dose: 50.0 mg/kg/injection, schedule: Q01DX001 (ip), vehicle: carboxymethylcellulose (CMC) 98 % of control | dose: 100.0 mg/kg/injection, schedule: Q01DX001 (ip), vehicle: carboxymethylcellulose (CMC) 93 % of control | dose: 200.0 mg/kg/injection, schedule: Q01DX001 (ip), vehicle: carboxymethylcellulose (CMC) 98 % of control

CCOS(C)(=O)=O
inactive: dose: 50.0 mg/kg/injection, schedule: Q01DX009 (ip), vehicle: saline 98 % of control | dose: 100.0 mg/kg/injection, schedule: Q01DX009 (ip), vehicle: saline 101 % of control | dose: 100.0 mg/kg/injection, schedule: Q04DX003 (ip), vehicle: alcohol 102 % of control | dose: 200.0 mg/kg/injection, schedule: Q01DX009 (ip), vehicle: saline 104 % of control | dose: 200.0 mg/kg/injection, schedule: Q04DX003 (ip), vehicle: alcohol 102 % of control

CS(=O)(=O)OCC(=O)COS(C)(=O)=O
inactive: dose: 1.25 mg/kg/injection, schedule: Q01DX009 (ip), vehicle: saline 95 % of control | dose: 2.5 mg/kg/injection, schedule: Q01DX009 (ip), vehicle: saline 93 % of control | dose: 10.0 mg/kg/injection, schedule: Q01DX009 (ip), vehicle: saline 116 % of control

CN(C)c1ccc(/C=N/NC(=S)Nc2ccccc2)cc1
inactive: [6] 109 % of control | [7] 98 % of control | dose: 400.0 mg/kg/injection, schedule: Q01DX009 (ip), vehicle: Klucel (hydroxypropylcellulose) (HPC) 94 % of control

CCOC(=O)COc1ccc(N=NN(C)c2ccccc2)cc1
inactive: dose: 111.0 mg/kg/injection, schedule: Q01DX Z (ip), vehicle: carboxymethylcellulose (CMC) 102 % of control | dose: 166.0 mg/kg/injection, schedule: Q01DX Z (ip), vehicle: carboxymethylcellulose (CMC) 104 % of control | dose: 250.0 mg/kg/injection, schedule: Q01DX Z (ip), vehicle: carboxymethylcellulose (CMC) 113 % of control

COc1ccc(I)c([N+](=O)[O-])c1
inactive: [6] 96 % of control | [8] 100 % of control | [7] 96 % of control | dose: 200.0 mg/kg/injection, schedule: Q04DX003 (ip), vehicle: Klucel (hydroxypropylcellulose) (HPC) 94 % of control | dose: 400.0 mg/kg/injection, schedule: Q04DX003 (ip), vehicle: Klucel (hydroxypropylcellulose) (HPC) 103 % of control

Nc1c(Cl)ncnc1Nc1ccccc1C(=O)O
inactive: [4] 102 % of control | [1] 93 % of control | [2] 98 % of control | [3] 98 % of control

CC1OC2CC(=O)OC2C2=C1C(=O)c1c(O)c3c(c(O)c1C2=O)C1CC(O)C3(O)C(C)O1 (stereo unspecified)
inactive: dose: 0.01 mg/kg/injection, schedule: Q01DX Z (ip), vehicle: saline 112 % of control | dose: 0.03 mg/kg/injection, schedule: Q01DX Z (ip), vehicle: saline 98 % of control | dose: 0.05 mg/kg/injection, schedule: Q01DX Z (ip), vehicle: saline 90 % of control | dose: 0.1 mg/kg/injection, schedule: Q01DX Z (ip), vehicle: saline 95 % of control | dose: 0.2 mg/kg/injection, schedule: Q01DX Z (ip), vehicle: saline 95 % of control and 100 % of control | dose: 0.4 mg/kg/injection, schedule: Q01DX Z (ip), vehicle: saline 90 % of control | dose: 0.8 mg/kg/injection, schedule: Q01DX Z (ip), vehicle: saline 89 % of control | dose: 1.6 mg/kg/injection, schedule: Q01DX Z (ip), vehicle: saline 94 % of control | dose: 3.2 mg/kg/injection, schedule: Q01DX Z (ip), vehicle: saline 86 % of control | dose: 5.0 mg/kg/injection, schedule: Q01DX001 (ip), vehicle: saline 102 % of control | dose: 6.4 mg/kg/injection, schedule: Q01DX Z (ip), vehicle: saline 92 % of control | dose: 10.0 mg/kg/injection, schedule: Q01DX001 (ip), vehicle: saline 102 % of control | dose: 12.0 mg/kg/injection, schedule: Q01DX Z (ip), vehicle: saline 92 % of control | dose: 12.8 mg/kg/injection, schedule: Q01DX Z (ip), vehicle: saline 87 % of control | dose: 20.0 mg/kg/injection, schedule: Q01DX001 (ip), vehicle: saline 97 % of control | dose: 40.0 mg/kg/injection, schedule: Q01DX001 (ip), vehicle: saline 97 % of control

COc1cc([N+](=O)[O-])ccc1NC(=O)c1cccc([N+](=O)[O-])c1C(=O)O
inactive: dose: 100.0 mg/kg/injection, schedule: Q04DX002 (ip), vehicle: Klucel (hydroxypropylcellulose) (HPC) 95 % of control | dose: 200.0 mg/kg/injection, schedule: Q04DX002 (ip), vehicle: Klucel (hydroxypropylcellulose) (HPC) 103 % of control | dose: 400.0 mg/kg/injection, schedule: Q04DX002 (ip), vehicle: Klucel (hydroxypropylcellulose) (HPC) 100 % of control

CC(=O)c1coc(=O)cc1O
inactive: dose: 25.0 mg/kg/injection, schedule: Q01DX009 (ip), vehicle: Klucel (hydroxypropylcellulose) (HPC) 102 % of control | dose: 25.0 mg/kg/injection, schedule: Q04DX003 (ip), vehicle: Klucel (hydroxypropylcellulose) (HPC) 97 % of control | dose: 50.0 mg/kg/injection, schedule: Q01DX009 (ip), vehicle: Klucel (hydroxypropylcellulose) (HPC) 98 % of control | dose: 50.0 mg/kg/injection, schedule: Q04DX003 (ip), vehicle: Klucel (hydroxypropylcellulose) (HPC) 97 % of control | [5] 103 % of control | [6] 98 % of control | [8] 100 % of control
